Columns and labels:
[1] = test system: production of nitric oxide (NO); experiment: Production of nitric oxide (NO) in cultures of mouse peritoneal cells stimulated with IFN-γ plus LPS (Griess reagent); format: cell-based, mice; details: substance 50 μmol·l^−1, IFN-g plus LPS, 24 h
Procedure, shortened: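 C57BL/6 mouse peritoneal cells (2×10^6/mL) stimulated with IFN-γ (5000 pg/mL) plus LPS (100 pg/mL), compounds at 50 μmol·l^−1. Nitrite measured by Griess reagent after 24 h, expressed as % of stimulated control (set 100%); IC50 is concentration reducing NO by 50%.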

[2] = test system: production of prostaglandin E2 (PGE2); experiment: Production of prostaglandin E2 (PGE2) in cultures of mouse peritoneal cells stimulated with LPS (ELISA kit); format: cell-based, mice; details: for Production of prostaglandins IC50 (μmol · 1^−1) average value and range of values: Table 3B, 6 h; for Production of prostaglandins in % of the controls: Table 3A, substance 50 μmol·l^−1, 6 h
Procedure, shortened: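 C57BL/6 mouse peritoneal cells (3×10^6/mL) stimulated with LPS (10 ng/mL). PGE2 measured by ELISA.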

peritoneal cells of mice = experiment: Cell viability of mouse peritoneal cells (WST-1 kit); format: cell-based; details: substance 50 μmol·l^−1, 24 h; for Cell viabilities in % of the controls: Table 3B; for Cell viability in % of the controls: Table 3A
Procedure, shortened: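 C57BL/6 mouse peritoneal cells (1×10^6/mL) cultured 24 h with compounds at 50 μmol·l^−1. Viability read with WST-1 tetrazolium salt and expressed as percent of untreated control cells (100%).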

Row | Structure (SMILES) | Production of nitric oxide in % of the controls ([1]; Table 3B) | Production of prostaglandins IC50 (μmol · 1^−1) average value and range of values [2] | Cell viabilities in % of the controls (peritoneal cells of mice) | Production of nitric oxide in % of the controls ([1]; Table 3A) | Production of prostaglandins in % of the controls [2] | Cell viability in % of the controls (peritoneal cells of mice)
1 | CCCCc1c(-c2ccco2)nc(N)nc1-c1ccco1 [Substance 100] | 33.70 ± 2.71; n = 6 % of the controls | 22.46 ± 7.25; n = 2 μmol · 1^−1 | 69.04 ± 4.47; n = 8 % of the controls | – | – | –
2 | CCCCc1c(Cl)nc(N)nc1-c1ccccc1 [Substance 68] | 27.78 ± 2.11; n = 4 % of the controls | 18.12 ± 0.99; n = 6 μmol · 1^−1 | 94.17 ± 8.43; n = 8 % of the controls | – | – | –
3 | CCCCc1c(-c2cccs2)nc(N)nc1-c1cccs1 [Substance 92] | 46.09 ± 7.92; n = 6 % of the controls | 29.52 ± 11.77; n = 4 μmol · 1^−1 | 102.36 ± 6.45; n = 8 % of the controls | – | – | –
4 | CN(C)C=Nc1nc(Cl)c(-c2ccccc2)c(Cl)n1 [Substance 24] | – | – | – | 4.97 ± 2.00 % of the controls | 18.45 ± 13.68 % of the controls | 80.00 ± 11.61 % of the controls
5 | CCCCc1c(-c2ccc(OC)cc2)nc(N)nc1-c1cccs1 [Substance 88] | 69.14 ± 9.10; n = 2 % of the controls | 14.19 ± 4.00; n = 6 μmol · 1^−1 | 125.52 ± 5.28; n = 8 % of the controls | – | – | –
6 | C#CCc1c(Cl)nc(N=CN(C)C)nc1Cl [Substance 18] | – | – | – | 0.90 ± 0.22 % of the controls | 78.55 ± 0.38 % of the controls | 67.89 ± 7.41 % of the controls
7 | CCCc1c(Cl)nc(N=CN(C)C)nc1Cl [Substance 15] | – | – | – | 8.42 ± 4.75 % of the controls | 14.76 ± 0.52 % of the controls | 109.35 ± 8.88 % of the controls
8 | CCCCc1c(-c2ccccn2)nc(N)nc1-c1cc2ccccc2o1 [Substance 118] | 56.53 ± 3.33; n = 8 % of the controls | 52.17 ± 14.96; n = 6 μmol · 1^−1 | 91.38 ± 4.41; n = 8 % of the controls | – | – | –
9 | CCCCc1c(-c2ccc(F)cc2)nc(N)nc1-c1ccc(OC)cc1 [Substance 73] | 65.09 ± 4.11; n = 6 % of the controls | 3.92 ± 1.85; n = 4 μmol · 1^−1 | 130.12 ± 10.97; n = 12 % of the controls | – | – | –
10 | CCCCc1c(-c2ccccc2)nc(N)nc1-c1cccnc1 [Substance 78] | 52.81 ± 2.91; n = 4 % of the controls | 59.49 ± 9.09; n = 2 μmol · 1^−1 | 78.08 ± 5.20; n = 4 % of the controls | – | – | –
11 | CCCCc1c(-c2ccsc2)nc(N)nc1-c1cc2ccccc2o1 [Substance 124] | 33.45 ± 13.04; n = 6 % of the controls | 62.48 ± 5.45; n = 2 μmol · 1^−1 | 94.41 ± 9.01; n = 8 % of the controls | – | – | –
12 | CCCCc1c(-c2ccoc2)nc(N)nc1-c1ccsc1 [Substance 113] | 63.79 ± 1.64; n = 6 % of the controls | 85.05 ± 9.96; n = 4 μmol · 1^−1 | 101.51 ± 12.74; n = 8 % of the controls | – | – | –
13 | CCCCc1c(-c2ccc(OC)cc2)nc(N)nc1-c1ccccn1 [Substance 77] | 58.20 ± 5.42; n = 6 % of the controls | 13.48 ± 1.94; n = 4 μmol · 1^−1 | 100.86 ± 11.78; n = 4 % of the controls | – | – | –
14 | CCCCc1c(-c2ccc(F)cc2)nc(N)nc1-c1cccnc1 [Substance 79] | 62.58 ± 2.32; n = 6 % of the controls | 47.26 ± 5.67; n = 2 μmol · 1^−1 | 104.50 ± 6.37; n = 8 % of the controls | – | – | –
15 | CCCCc1c(Cl)nc(NN)nc1Cl.Cl [Substance 146] | 86.28 ± 9.01; n = 6 % of the controls | 1.61 ± 0.27; n = 4 μmol · 1^−1 | 103.28 ± 4.62; n = 8 % of the controls | – | – | –
16 | CCCCc1c(Cl)nc(N)nc1-c1cc2ccccc2s1 [Substance 132] | 49.61 ± 6.36; n = 4 % of the controls | 20.76 ± 9.35; n = 4 μmol · 1^−1 | 84.08 ± 4.71; n = 8 % of the controls | – | – | –
17 | Cc1c(Cl)nc(NC=O)nc1Cl [Substance 48] | – | – | – | 1.35 ± 0.01 % of the controls | 36.31 ± 1.99 % of the controls | 66.37 ± 8.13 % of the controls
18 | CCCCc1c(Cl)nc(Sc2ccccc2)nc1Cl [Substance 148] | 61.85 ± 10.25; =10 % of the controls | 77.50 ± 16.19; n = 4 μmol · 1^−1 | 90.49 ± 4.62; n = 12 % of the controls | – | – | –
19 | CCCCc1c(-c2ccccc2)nc(N)nc1-c1cccc2ccccc12 [Substance 133] | 49.60 ± 9.26; n = 4 % of the controls | 61.74 ± 17.48; n = 2 μmol · 1^−1 | 110.75 ± 3.69; n = 4 % of the controls | – | – | –
20 | CCCCc1c(-c2cccnc2)nc(N)nc1-c1cc2ccccc2o1 [Substance 119] | 70.13 ± 10.10; n = 6 % of the controls | 71.89 ± 0.36; n = 2 μmol · 1^−1 | 76.10 ± 6.23; n = 8 % of the controls | – | – | –
21 | CCCCc1c(Cl)nc(NC(C)=O)nc1Cl [Substance 147] | 15.32 ± 2.33; n = 6 % of the controls | 80.60 ± 4.63; n = 2 μmol · 1^−1 | 113.28 ± 8.99; n = 8 % of the controls | – | – | –
22 | CCCCc1c(-c2ccccc2)nc(N)nc1-c1cccs1 [Substance 86] | 47.57 ± 8.58; n = 6 % of the controls | 27.57 ± 8.77; n = 4 μmol · 1^−1 | 101.59 ± 9.19; n = 8 % of the controls | – | – | –
23 | CCc1c(Cl)nc(N=CN(C)C)nc1Cl [Substance 14] | – | – | – | 23.24 ± 6.78 % of the controls | 30.40 ± 0.80 % of the controls | 162.93 ± 14.68 % of the controls
24 | CCCCc1c(-c2cccs2)nc(N)nc1-c1cc2ccccc2s1 [Substance 130] | 43.43 ± 7.18; n = 10 % of the controls | 56.31 ± 19.61; n = 8 μmol · 1^−1 | 130.68 ± 8.17; n = 12 % of the controls | – | – | –
25 | CCCCc1c(Cl)nc(N)nc1-c1ccco1 [Substance 101] | 29.35 ± 6.38; n = 6 % of the controls | 6.60 ± 5.34; n = 4 μmol · 1^−1 | 68.95 ± 3.02; n = 8 % of the controls | – | – | –
26 | CCCCc1c(Cl)nc(NC2CC2)nc1Cl [Substance 143] | 78.33 ± 13.82; n = 6 % of the controls | 85.94 ± 12.69; n = 4 μmol · 1^−1 | 104.31 ± 8.28; n = 8 % of the controls | – | – | –
27 | CCCCc1c(Cl)nc(N)nc1-c1cc2ccccc2o1 [Substance 126] | 78.18 ± 9.03; n = 4 % of the controls | 87.25 ± 13.99; n = 2 μmol · 1^−1 | 102.56 ± 5.92; n = 4 % of the controls | – | – | –
28 | CCCCc1c(-c2ccccn2)nc(N)nc1-c1cc2ccccc2s1 [Substance 127] | 40.88 ± 6.83; n = 4 % of the controls | 38.26 ± 14.52; n = 8 μmol · 1^−1 | 130.66 ± 2.87; n = 8 % of the controls | – | – | –

Source: US8883798B2, “Pyrimidine compounds inhibiting the formation of nitric oxide and prostaglandin E2, method of production thereof and use thereof” (Ustav Organicke Chemie a Biochemie Akademie Ved CR, V.V.I., priority 2011, dated 2014)
